Experimental data as given in US20210308308A1, “SYRINGE AND KIT FOR INTRAVESICAL USE” (Farco-Pharma GmbH, priority 2020, published 2021).
Counter-ions that a name gives are not always drawn.

Assay: stability of oxybutynin hydrochloride composition during terminal vapor sterilization in prefilled piston syringes

Structure (SMILES): CCN(CC)CC#CCOC(=O)C(O)(c1ccccc1)C1CCCCC1 (centres unmarked) [oxybutynin hydrochloride, 4-diethylaminobut-2-inyl-2-cyclohexyl-2-hydroxy-2-phenyl ethanoate]
- further impurities after vapor sterilization (1 mg/ml, pH 4.0, polypropylene syringes with piston plugs of conventional rubber material, vapor sterilization): exceeding 0.5%
- stability during thermal sterilization (in words) (aqueous composition, polypropylene (disposable) syringes, piston plugs and closing caps of commonly used rubber materials): high instability or incompatibility
